As usually defined, the Emax is the size of the effect at its maximum, as opposed to the concentration needed.

The assay deals with T1, OGA (Homo sapiens, UniProt O60502).
T1 construct: HEK293 cells inducible for P301L mutant human Tau (isoform 2N4R) were established at Janssen; endogenous in cells; host or cells: HEK293 cells inducible for P301L mutant human Tau (2N4R)
T1 sequence (O60502 1-916): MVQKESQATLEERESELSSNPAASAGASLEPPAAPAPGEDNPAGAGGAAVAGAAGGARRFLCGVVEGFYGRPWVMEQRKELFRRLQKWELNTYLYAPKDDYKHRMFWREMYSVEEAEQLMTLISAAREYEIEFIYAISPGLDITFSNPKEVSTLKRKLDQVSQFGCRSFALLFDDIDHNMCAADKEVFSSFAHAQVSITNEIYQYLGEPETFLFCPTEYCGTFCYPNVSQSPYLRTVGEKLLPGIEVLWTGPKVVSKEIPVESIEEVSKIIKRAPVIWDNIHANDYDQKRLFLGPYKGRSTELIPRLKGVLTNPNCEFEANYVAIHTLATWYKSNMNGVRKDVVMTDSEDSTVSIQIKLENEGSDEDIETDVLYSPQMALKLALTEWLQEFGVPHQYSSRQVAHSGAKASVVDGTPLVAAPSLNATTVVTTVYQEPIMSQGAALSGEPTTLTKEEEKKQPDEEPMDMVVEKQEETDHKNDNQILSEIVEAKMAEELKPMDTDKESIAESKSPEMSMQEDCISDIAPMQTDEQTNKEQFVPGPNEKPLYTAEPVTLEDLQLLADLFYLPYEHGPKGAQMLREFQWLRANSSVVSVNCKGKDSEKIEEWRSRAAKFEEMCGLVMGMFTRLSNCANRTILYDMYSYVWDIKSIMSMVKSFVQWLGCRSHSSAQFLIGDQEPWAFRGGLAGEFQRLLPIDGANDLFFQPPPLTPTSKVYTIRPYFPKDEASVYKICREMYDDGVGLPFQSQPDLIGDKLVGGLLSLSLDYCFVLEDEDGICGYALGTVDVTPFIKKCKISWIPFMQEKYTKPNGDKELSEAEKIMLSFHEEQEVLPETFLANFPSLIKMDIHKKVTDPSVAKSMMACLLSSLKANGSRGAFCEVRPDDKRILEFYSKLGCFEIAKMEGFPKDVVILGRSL
As to the kind of experiment: OGA cellular assay (ICC detection of O-GlcNAcylated proteins in HEK293 cells inducible for P301L mutant human Tau). The class given is cell-based. The note with it: 6 hours incubation; for Emax: HEK293, HEK293 cells inducible for P301L mutant human Tau, maximum = Thiamet G 200 uM; for EC50: HEK293 cells inducible for P301L mutant human Tau, read-out: Cellular hOGA, pEC50 (converted). Put shortly:
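HEK293 cells with inducible P301L 2N4R Tau, seeded in low-glucose medium, were exposed to compounds for 6 hours (0.2% DMSO), then PFA-fixed and stained with CTD110.6. Imaging intensity at 488 nm measured O-GlcNAcylation, with Hoechst nuclei counts for toxicity. IC50s came from non-linear regression, with Thiamet G at 200 uM as maximum inhibition.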

For the molecule `Cc1cc(OC2CCN([C@@H](C)c3nc4nc(C)sc4cc3F)CC2)cc(C)n1` (single isomer, unassigned) [Compound 83], the maximal response (Emax) came to 86% and the EC50 is 0.0316 µM.
For `Cc1cc(OC2CCN([C@H](C)c3nc4c(cc3F)CCO4)CC2)cc(C)n1` (single isomer, unassigned) [Compound 144], the maximum response (Emax) stood at 81% and the EC50 was 0.01 µM.
The corresponding values for `Cc1cc(OC2CCN([C@H](C)c3nc4c(cc3F)OCCO4)CC2)cc(C)n1` (single isomer, unassigned) [Compound 148] are 82% and 0.0501 µM.
The corresponding values for `Cc1ncc(OC2CCN(C(C)c3nc4c(cc3F)CCO4)CC2)cn1` (centres unmarked) [Compound 95] are 92% and 0.0398 µM.

The values are drawn from US20210122763A1, “OGA INHIBITOR COMPOUNDS” (Janssen Pharmaceutica NV, priority 2018, published 2021).
